Patent US10287269B2, “Pyrazolyl pyrimidinone compounds as PDE2 inhibitors” (Merck Sharp & Dohme Corp., priority 2015, dated 2019)

Target: T1, Rhesus PDE2A3 (Macaca mulatta, UniProt B3VTJ2)
T1 construct: made in house; host or cells: AD293 cells, transient transfection, pcDNA3.3-TOPO; lysate supernatant used as enzyme
T1 sequence (B3VTJ2 1-941): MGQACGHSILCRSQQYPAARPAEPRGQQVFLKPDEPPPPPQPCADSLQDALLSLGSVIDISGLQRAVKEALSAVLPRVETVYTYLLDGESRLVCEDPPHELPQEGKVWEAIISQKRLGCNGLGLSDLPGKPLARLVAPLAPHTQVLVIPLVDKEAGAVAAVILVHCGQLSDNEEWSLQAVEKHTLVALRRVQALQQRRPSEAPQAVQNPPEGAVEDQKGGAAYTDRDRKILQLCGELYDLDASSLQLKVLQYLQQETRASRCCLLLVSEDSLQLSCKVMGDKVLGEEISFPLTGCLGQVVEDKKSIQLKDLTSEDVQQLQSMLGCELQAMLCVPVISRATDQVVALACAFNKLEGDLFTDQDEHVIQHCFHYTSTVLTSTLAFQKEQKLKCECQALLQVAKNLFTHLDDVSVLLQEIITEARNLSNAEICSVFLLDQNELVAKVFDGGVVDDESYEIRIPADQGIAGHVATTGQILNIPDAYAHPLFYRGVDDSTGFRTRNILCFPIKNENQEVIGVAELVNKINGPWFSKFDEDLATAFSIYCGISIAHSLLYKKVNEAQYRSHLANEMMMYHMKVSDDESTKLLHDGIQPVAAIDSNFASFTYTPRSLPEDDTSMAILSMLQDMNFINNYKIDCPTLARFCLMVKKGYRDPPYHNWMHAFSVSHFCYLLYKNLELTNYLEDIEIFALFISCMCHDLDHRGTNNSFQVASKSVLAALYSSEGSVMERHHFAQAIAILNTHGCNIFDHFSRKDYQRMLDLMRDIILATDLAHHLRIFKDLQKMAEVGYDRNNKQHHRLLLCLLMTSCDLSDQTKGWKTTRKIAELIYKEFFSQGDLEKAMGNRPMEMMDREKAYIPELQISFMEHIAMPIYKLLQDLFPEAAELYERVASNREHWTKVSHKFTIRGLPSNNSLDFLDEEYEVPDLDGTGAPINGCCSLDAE
Assay: PDE2 fluorescence polarization (IMAP FP) inhibition assay, rhesus enzyme
Assay type: biochemical, rhesus macaque
Settings: Lab A; read-out: Rhesus PDE2 Ki (nM) Lab A
Experimental: The activity of the compounds in accordance with the present invention as PDE2 inhibitors may be readily determined using a fluorescence polarization (FP) methodology (Huang, W., et al., J. Biomol Screen, 2002, 7: 215).
In a typical experiment the PDE2 inhibitory activity of the compounds of the present invention was determined in accordance with the following experimental method. Rhesus PDE2A3 was amplified from rhesus macaque brain cDNA (Biochain Institute, Hayward, Calif.) using primers based on human PDE2A sequence (accession NM_002599.3) where the forward primer containing a Kozak consensus was 5′-[…]-3′ and the reverse primer was 5′-[…]-3′. Amplification with Easy-A High-Fidelity PCR cloning enzyme (Stratagene, La Jolla, Calif.) was 95° C. for 2 minutes followed by thirty three cycles of 95° C. for 40 seconds, 52° C. for 30 seconds, and 72° C. for 2 minutes 48 seconds. Final extension was 72° C. for 7 minutes. The PCR product was TA cloned into pcDNA3.3-TOPO (Invitrogen, Carlsbad, Calif.) according to standard protocol. A consensus sequence was developed from multiple clones and then deposited into GenBank (EU812167). AD293 cells (Stratagene, La Jolla, Calif.) with 70-80% confluency were transiently transfected with rhesus PDE2A3/pcDNA3.3-TOPO using Lipofectamine 2000 according to manufacturer specifications (Invitrogen, Carlsbad, Calif.). Cells were harvested 48 hours post-transfection and lysed by sonication (setting 3, 10×5 sec pulses) in a buffer containing 20 mM HEPES pH 7.4, 1 mM EDTA and Complete Protease Inhibitor Cocktail Tablets (Roche, Indianapolis, Ind.). Lysate was collected by centrifugation at 75,000×g for 20 minutes at 4° C. and supernatant utilized for evaluation of PDE2 activity. The fluorescence polarization assay for cyclic nucleotide phosphodiesterases was performed using an IMAP® FP kit supplied by Molecular Devices, Sunnyvale, Calif. (product # R8139). […] Assays were performed at room temperature in 384-well microtiter plates with an incubation volume of 20.2 μL. Solutions of test compounds were prepared in DMSO and serially diluted with DMSO to yield 8 μL of each of 10 solutions differing by 3-fold in concentration, at 32 serial dilutions per plate. […] 0% of inhibition is determined by using DMSO (1% final concentrations).
A Labcyte Echo 555 (Labcyte, Sunnyvale, Calif.) is used to dispense 200 nL from each well of the titration plate to the 384 well assay plate. Ten microliters of a solution of enzyme (1/2000 final dilution from aliquots; sufficient to produce 20% substrate conversion) was added to the assay plate. Next 10 uL of a separate solution of the substrate FAM-labeled cAMP (50 nM final concentration product # R7506 from Molecular Devices) and the activator cGMP (1 uM final concentration), prepared in the assay buffer (10 mM Tris HCl, pH 7.2, 10 mM MgCl2, 0.05% NaN3 0.01% Tween-20, and 1 mM DTT) was added to the assay plate and shaken to mix. The reaction is allowed to proceed at room temperature for 60 minutes. A binding solution is then made from the kit components, comprised of 80% Solution A, 20% Solution B and binding reagent at a volume of 1/600 the total binding solution. The enzymatic reaction is stopped by addition of 60 μl, of the binding solution to each well of the assay plates and the plates are sealed and shaken for 30 seconds. The plate was incubated at room temperature for at least one hour prior to determining the fluorescence polarization (FP). The parallel and perpendicular fluorescence of each well of the plate was measured using a Tecan Genios Pro plate reader (Tecan, Switzerland) or Perkin Elmer EnVision™ plate reader (Waltham, Mass.). Fluorescence polarization (mP) was calculated from the parallel (S) and perpendicular (P) fluorescence of each sample well and the analogous values for the median control well, containing only substrate (So and Po), using the following equation: Polarization (mP)=1000*(S/So−P/Po)/(S/So+P/Po).

| Structure (SMILES) | Ki |
| --- | --- |
| Cc1nc(-c2cnn(C(C)C3CCOCC3)c2)cc(=O)[nH]1 (stereo not drawn) [Example 68, 2-methyl-6-(1-(1-(tetrahydro-2H-pyran-4-yl)ethyl)-1H-pyrazol-4-yl)pyrimidin-4(3H)-one] | 30100 nM |
| Cc1ccc(C(C)n2cc(-c3cc(=O)[nH]c(C)n3)cn2)c(Cl)c1 (single isomer, unassigned) [Example 149, (S)- or (R)-6-(1-(1-(2-chloro-4-methylphenyl)ethyl)-1H-pyrazol-4-yl)-2-methylpyrimidin-4(3H)-one] | 954 nM |
| Cc1nc(-c2cnn(C(C)c3ccc(C4CC4)cc3C)c2)cc(=O)[nH]1 (single isomer, unassigned) [Example 93, (R)- or (S)-6-(1-(1-(4-cyclopropyl-2-methylphenyl)ethyl)-1H-pyrazol-4-yl)-2-methylpyrimidin-4(3H)-one] | 706 nM |

The next lines start with the values.

| Ki | Structure (SMILES) |
| --- | --- |
| 146 nM | CCc1nc(-c2cnn(C(C)c3ccc(C(F)(F)F)cc3F)c2)cc(=O)[nH]1 (single isomer, unassigned) [Example 86, (S)- or (R)-2-ethyl-6-(1-(1-(2-fluoro-4-(trifluoromethyl)phenyl)ethyl)-1H-pyrazol-4-yl)pyrimidin-4(3H)-one] |
| 1140 nM | Cc1nc(-c2cnn(C(C)c3ccc(CC(F)(F)F)cc3F)c2)cc(=O)[nH]1 (single isomer, unassigned) [Example 95, (R)- or (S)-6-(1-(1-(2-fluoro-4-(2,2,2-trifluoroethyl)phenyl)ethyl)-1H-pyrazol-4-yl)-2-methylpyrimidin-4(3H)-one] |
| 695 nM | Cc1ccc(C(C)n2cc(-c3cc(=O)[nH]c(C)n3)cn2)c(F)c1 (single isomer, unassigned) [Example 150, (R)- or (S)-6-(1-(1-(2-fluoro-4-methylphenyl)ethyl)-1H-pyrazol-4-yl)-2-methylpyrimidin-4(3H)-one] |

Same assay, conditions: Lab B; read-out: Rhesus PDE2 Ki (nM) Lab B

| Structure (SMILES) | Ki |
| --- | --- |
| Cc1nc(-n2cc(C(C)c3ccc(C4CCC4)cc3)cn2)cc(=O)[nH]1 (stereo not drawn) [Example 38, 6-(4-(1-(4-cyclobutylphenyl)ethyl)-1H-pyrazol-1-yl)-2-methylpyrimidin-4(3H)-one] | 303 nM |
| Cc1nc(-c2cnn(C(C)C3CCOCC3)c2)cc(=O)[nH]1 (stereo not drawn) [Example 68, 2-methyl-6-(1-(1-(tetrahydro-2H-pyran-4-yl)ethyl)-1H-pyrazol-4-yl)pyrimidin-4(3H)-one] | 40100 nM |
| Cc1nc(-n2cc(C(C)c3ccc(C(F)(F)F)c(F)c3)cn2)cc(=O)[nH]1 (single isomer, unassigned) [Example 50, (R)- or (S)-6-(4-(1-(3-fluoro-4-(trifluoromethyl)phenyl)ethyl)-1H-pyrazol-1-yl)-2-methylpyrimidin-4(3H)-one] | > 1000 nM |
| CNC(c1ccc(C(F)(F)F)cc1)c1cnn(-c2cc(=O)[nH]c(C)n2)c1 (stereo not drawn) [Example 31, 2-Methyl-6-(4-((methylamino)(4-(trifluoromethyl)phenyl)methyl)-1H-pyrazol-1-yl)pyrimidin-4(3H)-one] | 488 nM |
| Cc1nc(-c2c(C)nn(C(C)c3ccc(C(F)(F)F)cc3)c2C)cc(=O)[nH]1 (stereo not drawn) [Example 79, 6-(3,5-dimethyl-1-(1-(4-(trifluoromethyl)phenyl)ethyl)-1H-pyrazol-4-yl)-2-methylpyrimidin-4(3H)-one] | 727 nM |
| Cc1nc(-c2cc(C(C)c3ccc(C(F)(F)F)cc3)nn2C)cc(=O)[nH]1 (single isomer, unassigned) [Example 131, (R)- or (S)-2-methyl-6-(1-methyl-3-(1-(4-(trifluoromethyl)phenyl)ethyl)-1H-pyrazol-5-yl)pyrimidin-4(3H)-one] | > 1000 nM |
| Cc1nc(-n2cc(C(C)c3ccc4c(c3)OCC4(C)C)cn2)cc(=O)[nH]1 (stereo not drawn) [Example 47, 6-(4-(1-(3,3-dimethyl-2,3-dihydrobenzofuran-6-yl)ethyl)-1H-pyrazol-1-yl)-2-methylpyrimidin-4(3H)-one] | 1240 nM |

Other lines, results leading:

| Ki | Structure (SMILES) |
| --- | --- |
| 314 nM | Cc1nc(-c2cnn(C(C)c3ccc(C(F)(F)F)cc3C)c2)cc(=O)[nH]1 (single isomer, unassigned) [Example 56, (R)- or (S)-2-methyl-6-(1-(1-(2-methyl-4-(trifluoromethyl)phenyl)ethyl)-1H-pyrazol-4-yl)pyrimidin-4(3H)-one] |
| 469 nM | Cc1nc(-c2cnn(C(C)c3ccc(OC(F)(F)F)cc3F)c2)cc(=O)[nH]1 (single isomer, unassigned) [Example 59, (S)- or (R)-6-(1-(1-(2-fluoro-4-(trifluoromethoxy)phenyl)ethyl)-1H-pyrazol-4-yl)-2-methylpyrimidin-4(3H)-one] |
